Measured values from patent publication US20160166572A1, “BENEFICIAL EFFECTS OF Lp-PLA2 INHIBITORS IN TREATMENT OF DIABETIC RETINOPATHY AND AGE-RELATED MACULAR DEGENERATION” (Rowan University, priority 2014, published 2016).

Assays:
[1] = tested on: ganglion cells in the GCL; test: Extravasated IgG in retina (anti-swine IgG IHC) as evidence of BRB compromise, DMHC pigs; format: in vivo, pig; settings: Darapladib 10 mg/kg/d orally, 24 weeks
Protocol: Briefly, after induction of diabetes by a single injection of Streptozotocin, animals were fed a high cholesterol diet. After a month of DMHC induction and acclimation, animals were randomly segregated to untreated DMHC and Darapladib-treated DMHC groups. Darapladib-treated pigs received 10 mg/kg/d of Darapladib orally. Three of the pigs were spared from DMHC induction and served as age-matched, non-DMHC normal controls. Twenty four weeks after acclimation, animals were euthanized and their brains and eyes were immediately removed. Brains were divided anteroposteriorly into anterior, middle and posterior regions. For each of these brain regions, 2-3 tissue blocks were generated for routine tissue fixation (10% formalin) or freezing and histological processing. The anterior cortical region comprised of anterior ⅔ of frontal lobe and anterior ⅓ of temporal lobe. […] Extravasated IgG was detected using biotinylated anti-swine IgG antibody (Vector laboratories, Inc., Catalogue # BA-9020; dilution 1:100). […] Slides were examined and photographed with a Nikon FXA microscope, and digital images were recorded using a Nikon DXM1200F digital camera and analyzed using MATLAB (MathWorks, Mass., USA) and NIS-elements software (Nikon, Melville, N.Y.). […] The percentage of IgG-positive ganglion cells relative to total ganglion cells in the GCL was calculated. […]

porcine retina = test: Determination of retinal layer thickness (H&E, ImagePro) in DMHC porcine model; format: in vivo, pig; settings: DMHC pigs, Darapladib 10 mg/kg/d orally, 24 weeks
Protocol: Briefly, after induction of diabetes by a single injection of Streptozotocin, animals were fed a high cholesterol diet. After a month of DMHC induction and acclimation, animals were randomly segregated to untreated DMHC and Darapladib-treated DMHC groups. Darapladib-treated pigs received 10 mg/kg/d of Darapladib orally. Three of the pigs were spared from DMHC induction and served as age-matched, non-DMHC normal controls. Twenty four weeks after acclimation, animals were euthanized and their brains and eyes were immediately removed. Brains were divided anteroposteriorly into anterior, middle and posterior regions. For each of these brain regions, 2-3 tissue blocks were generated for routine tissue fixation (10% formalin) or freezing and histological processing. The anterior cortical region comprised of anterior ⅔ of frontal lobe and anterior ⅓ of temporal lobe. The middle cortical region contained mid ⅓ of temporal lobe and anterior ½ of the parietal lobe. The posterior cortex included the posterior ½ of the parietal lobe, posterior ⅓ of the temporal lobe and the occipital lobe. Eyes were dissected longitudinally to sever the retina at the optic nerve. The sections were fixed in 10% formalin and embedded as flattened disc in paraffin. The tissue samples were processed using routine histology techniques. Standard Hematoxylin & Eosin (H&E) staining (FIG. 1) was carried out in retinal sections. The remarkably uniform and laminated histological architecture of the retina lends itself well to direct measurements of the thickness of the various layers as shown in FIG. 1. Using the image analysis software, ImagePro 7.0 (Media Cybernetics, Silver Spring, Md.), the thickness of all retinal layers were measured. The thickness of each retinal layer was measured in three separate retinal sections obtained from each animal. In each section, measurements were made at two randomly selected locations in the middle part of retina. Results were averaged for each pig. The identity of specimens was blinded and two independent investigators carried out this analysis. In addition, the percentage contribution of each retinal layer to the total thickness of the retina was calculated and compared among the different treatment groups (FIG. 2). The thickness of the individual layers of the retina was measured in transverse sections stained with Hematoxylin and Eosin using the image analysis software, ImagePro 7.0.

## CCN(CC)CCN(Cc1ccc(-c2ccc(C(F)(F)F)cc2)cc1)C(=O)Cn1c(SCc2ccc(F)cc2)nc(=O)c2c1CCC2 [Darapladib]
[1]
  plasma and IgG influx into retinal layers: curtailed plasma and IgG influx into retinal layers
[1]; rank among treatment groups, FIG. 4D
  percentage of IgG-positive ganglion cells relative to total ganglion cells in the GCL: followed by untreated controls and then the DMHC-Darapladib group
Porcine retina; FIG. 2B
  thickness of ganglion cell layer (GCL): comparable to controls
Porcine retina; FIG. 2C
  thickness of outer nuclear layer (ONL): comparable to controls
Porcine retina; FIG. 2D
  thickness of inner-segment (IS)/outer-segment (OS) layer: comparable to controls
Porcine retina; FIG. 2E
  thickness of inner plexiform layer (IPL): lowered IPL thickness in DMHC animals to near control levels
Porcine retina; FIG. 2F
  thickness of inner nuclear layer (INL): comparable thickness across all treatment groups
